Values after ≈ are worked out from the molar mass of the structure shown. Like-named read-outs stand apart in the source and are kept apart here.
Columns and labels:
[1] = system: P. aeruginosa PA-14 biofilm; assay: Solid-surface biofilm formation on catheter piece (CFU, SEM); type: cell-based, Pseudomonas aeruginosa; conditions: P. aeruginosa PA-14, 24 h, azithromycin 2 or 16 μg/ml
Experimental: (§1) To further evaluate the effect of azithromycin on planktonic cells and biofilm formation, a time-kill kinetic study was performed. Briefly, 10 ml of LB broth containing 0.2% glucose and a sterile 2-cm-long piece of the catheter were pre-warmed at 26 ± 2°C in reaction tubes, and the different concentrations of azithromycin (2 or 16 μg/ml) were added to tubes. The bacterial inoculum of P. aeruginosa PA-14 was prepared as described above and added to the tubes to achieve a final inoculum of ∼1 × 10^5 CFU/ml. The tubes were incubated at 26 ± 2°C. The planktonic cell counts were determined at various time-points by serial dilution plating onto a trypticase soy agar plate. After 24 h of incubation, the catheter pieces from each tube were removed, non-adherent bacteria were washed from the catheter pieces, and the number of CFU embedded in biofilm per catheter was determined as described earlier ([Kumar et al., 2016], [2019]). The experiment was performed in triplicate, and the mean log10 killing of planktonic cells and biofilm inhibition were calculated for each concentration. To further assess biofilm formation in the absence (drug-free control) or presence of azithromycin, the catheter pieces were also sectioned and processed for scanning electron microscopy (SEM).

[2] = system: pelA promoter-lacZ in recombinant P. aeruginosa G2; assay: β-galactosidase activity of pel promoter-lacZ transcriptional fusion; type: cell-based, Pseudomonas aeruginosa
Experimental: To understand the molecular mechanism of biofilm inhibition, a recombinant mutant P. aeruginosa G2-containing promoterless lacZ gene under promoter control of pelA was gifted to us by Prof. Kilter ([Sakuragi and Kolter, 2007]). The β-galactosidase activity was performed in the absence and presence of different concentrations of azithromycin and levofloxacin, as described earlier ([Sakuragi and Kolter, 2007]).

[3] = system: P. aeruginosa G2; assay: MIC; type: cell-based; conditions: Pseudomonas aeruginosa
[4] = system: pre-formed biofilm of P. aeruginosa PAO1; assay: Activity on pre-formed biofilm (eradication), crystal violet; type: cell-based; conditions: Pseudomonas aeruginosa; pre-formed 24 h biofilm of P. aeruginosa PAO1, 24 h exposure; read-out: minimum biofilm eradication concentration (MBEC50)
Experimental: The efficacy of azithromycin was also evaluated on a pre-formed biofilm of P. aeruginosa PAO1 to assess the therapeutic or eradicative effect of azithromycin as described earlier ([Macia et al., 2014]). The bacterial suspension was prepared as described above and inoculated at 200 μl/well in a 96-well plate. After 24 h of incubation, the wells were emptied and washed with PBS and then spiked with different concentrations (16–0.015 μg/ml) of azithromycin prepared in LB broth containing 0.2% glucose. The plate was further incubated for 24 h, and the effect of azithromycin was assessed as described above.

[5] = system: P. aeruginosa PA-14; assay: Chronic rat lung (biofilm) infection model, lung bacterial load; type: in vivo, Sprague-Dawley rats; conditions: 75 mg/kg PO, q24h for 4 days, started 3 days post-infection; lungs 22 h after last dose
Excerpt: Specific pathogen-free female Sprague–Dawley (SD) rats, weighing 200 ± 20 g (age 8 weeks), were used for the study. The rats were procured from Vivo Biotech Pvt. Ltd., Hyderabad, India. The animals were housed in a pathogen-free animal facility and allowed 5 days of acclimatization in the study room before initiating the experiment. Feed and water were provided ad libitum during acclimatization and the study periods. All animal studies were approved by the institutional animal ethics committee. The animal studies were conducted under the strict guidelines of the committee for the Purpose of Control and Supervision of Experiments on Animals, Ministry of Environment, Forests and Climate Change, New Delhi, Government of India, and under the supervision of the institutional committee.
To determine the in vivo efficacy of azithromycin, a chronic biofilm model of P. aeruginosa was established in SD rats, which mimic the human chronic infection ([Hoover et al., 2017]; [Chawanpaiboon et al., 2019]). A semisolid 0.25% w/v agar beads suspension was prepared and autoclaved a day before the in vivo experiment and stored overnight at 4°C. […] The rats were then euthanized 22 h after the last dose, and the lungs’ bacterial load was determined by plating diluted lung homogenates on MHA.

[6] = system: QS molecule (3-O-C12 HSL) of P. aeruginosa; assay: QS molecule in epithelial lining fluid of infected rats; type: in vivo; conditions: azithromycin treated rats vs placebo control, 7 days post-infection
[7] = system: P. aeruginosa PA-14 planktonic cells; assay: Time-kill kinetic study, planktonic cells; type: cell-based, Pseudomonas aeruginosa; conditions: P. aeruginosa PA-14, LB media
Experimental: as §1

[8] = Pharmacokinetics in plasma and lung ELF of P. aeruginosa-infected rats; conditions: rat, in vivo, po, 75 mg/kg; for Kp: Sprague-Dawley, 75 mg/kg PO, infected rats
Experimental: The concentrations of azithromycin were assessed in the plasma and lung epithelial lining fluid (ELF) of the rats infected with P. aeruginosa PA-14. Intratracheal infection in rats was performed as described above. A single dose of 75 mg/kg of azithromycin was administered orally through gavage. Blood and broncho-alveolar lavage (BAL) fluid (with 2 ml of normal saline wash) were collected at different time-points up to 24 h post-dose from each animal by gross dissection. For the collection of BAL, 2 ml of sterile cold PBS was infused into the animal through the trachea and into the bronchial cavity and aspirated out. Plasma was harvested from blood samples by centrifugation. The azithromycin concentrations in plasma and BAL samples were determined using liquid chromatography with tandem mass spectrometry. The apparent volume of ELF (VELF) in BAL fluid was determined by the urea dilution method using the urea assay kit from BioChain (Hayward, CA). The concentration of azithromycin in ELF (CELF) was determined as
where CBAL is the measured concentration of azithromycin in BAL fluid.

[9] = system: P. aeruginosa PAO1 biofilm; assay: In vitro biofilm formation inhibition, crystal violet, 96-well plate; type: cell-based; conditions: Pseudomonas aeruginosa; P. aeruginosa PAO1, 24 h exposure, LB broth with 0.2% glucose; read-out: biofilm preventive concentration (BPC50)
Experimental: The effect of azithromycin and clindamycin on P. aeruginosa biofilm formation was assessed as described previously ([Sharma et al., 2009]; [Barman et al., 2016]; [Kumar et al., 2019]). Briefly, the overnight-grown culture of P. aeruginosa PAO1 in TSB was pelleted and resuspended in Luria-Bertani broth containing 0.2% glucose (10^7 CFU/ml). The bacterial suspension was spiked with different concentrations (16-0.015 μg/ml) of azithromycin or clindamycin in 96-well plates and incubated at 26 ± 2°C. The effects of azithromycin and clindamycin on inhibition of biofilm formation were assayed after 24 h of exposure. The wells were emptied and washed three times with phosphate-buffered saline (PBS; pH 7.3), and the adherent biofilm was stained with 200 μl of 1% crystal violet for 30 min and rinsed with distilled water. The adherent biofilm in the wells was solubilized with 200 μl of 30% acetic acid, and the optical density at 600 nm (OD600) was measured to quantify the formed biofilms. Each experiment was performed thrice, and the mean percent inhibition and standard deviations were calculated. The relative inhibition of biofilms, expressed as a mean percentage, was determined using the following formula: Percentinhibition=100-{([…]-controlwell)×100}

SMILES	solid-surface biofilm formation on catheter pieces [1]	IC50 ([2]; Pseudomonas aeruginosa, read-out: inhibition of β-galactosidase activity, IC50) [µg/mL]	MIC [3] [µg/mL]	IC50 [4] [µg/mL]	reduction in bacterial counts as compared to the placebo control [5] [log10]	level of QS molecules in the ELF [6]	reduction in planktonic cell counts as compared to the drug-free control ([7]; 6 h) [log10]	effect on planktonic cell counts ([7]; 24 h post-incubation)	Kp ([8]; read-out: lung ELF/plasma ratio of AUCinf)	Kp ([8]; read-out: lung ELF/plasma ratio of Cmax)	Cmax [8] [ng/mL]	Tmax [8] [h]	IC50 [9] [µg/mL]	effect on β-galactosidase activity ([2]; P. aeruginosa G2, sub-MIC concentrations)
CC[C@H]1OC(=O)[C@H](C)[C@@H](O[C@H]2C[C@@](C)(OC)[C@@H](O)[C@H](C)O2)[C@H](C)[C@@H](O[C@@H]2O[C@H](C)C[C@H](N(C)C)[C@H]2O)[C@](C)(O)C[C@@H](C)CN(C)[C@H](C)[C@@H](O)[C@]1(C)O [azithromycin]	no solid-surface biofilm formed	0.17 (≈ 0.227 µM)	> 0.032	7.49 (≈ 10 µM)	1.67	comparatively reduced level	1.86	no effect	86	81	950 ± 300	2	0.122 (≈ 0.163 µM)	
C[C@H]1COc2c(N3CCN(C)CC3)c(F)cc3c(=O)c(C(=O)O)cn1c23 [levofloxacin]			0.001 (≈ 0.00277 µM)											did not influence

From publication PMC8102702, “Azithromycin Exhibits Activity Against Pseudomonas aeruginosa in Chronic Rat Lung Infection Model” (Frontiers in Microbiology, 2021)
